According to patent US20040133938A1, “Use of lipoic acid in plant culture media” (priority 2002, published 2004):

Assays:
[1] = test system: MicroTom cotyledon explants; assay: Tissue browning severity on Agrobacterium-inoculated MicroTom cotyledon explants; format: cell-based, Lycopersicon esculentum; conditions: after 5 days on selection media
Protocol: This example describes the use of lipoic acid in an Agrobacterium-based tomato transformation process. MicroTom (a cultivar of tomato species: Lycopersicon esculentum) seeds from Tomato Growers (Ball Seed Co., West Chicago, Ill. USA) were surface-sterilized by first soaking for 10 min in sterile deionized water, removing the water, and then adding enough 70% ethanol to immerse the seeds for 1 min while stirring vigorously and then aspirating the ethanol. The seeds were rinsed 2× with sterile deionized water and then soaked in 25% Chlorox with 1-2 drops of Tween 20 for 10 min while stirring frequently. The seeds were rinsed 3× with sterile deionized water. The seeds were germinated in phytatrays containing Davis Germination medium (4.3 g/L MS salts, 2 ml/L Gamborg's B-5 500× salts, 20 g/L sucrose and 10 g/L agar) (approximately 120 seeds/container), and the phytatrays were wrapped with aluminum foil. The phytatray cultures were maintained at 28° C. under the dark for 5 days. After 5 days, the phytatray cultures were unwrapped and grown at 24° C. under a 16 h photoperiod for about 44 h.
Cotyledon explants were isolated from seedlings 7 days after sowing seeds on Davis Germination medium. Cotyledon explants were prepared by bathing them in 6 mL of TXD liquid medium (4.3 g/L MS salts, 2 mL/L Gamborg's B-5 500× salts, 4 mg/L pCPA (p-chlorophenoxyactic acid), 0.005 mg/L kinetin, and 30 g/L sucrose) to prevent desiccation and trimming them at both ends using a #15 feather blade. Immediately after the trimming, the cotyledon explants were gently placed on “feeder plates” containing UC2PC medium (2.2 g/L MS salts, 2.2 mL/L, Gamborg's B-5 500× salts, 0.2 mg/L 2,4-D, 4 mg/L pCPA, 0.1 mg/L kinetin, 30 g/L sucrose, 0.2 g/L potassium phosphate, 10 g/L agar, 8 mL/L acetosyringone (4.91 mg/mL), and 4 mL galacturonic acid (53.05 mg/mL)). The “feeder plates” are made by overlaying 2 mL of tobacco suspension cells and a sterile Whatman filter on the plates containing UC2PC medium. The cotyledon explants were gently poked with a sharp forceps (ASIM5311, Stainless French, made in Switzerland). Usually six to ten pokes were made per explant depending the size of cotyledons. Right after poking, the cotyledons were inoculated with Agrobacterium containing pMON15715 (FIG. 1) by adding 3 mL of the adjusted Agrobacterium solution on top of the cotyledons. The plates were incubated for 10 min at room temperature, and the Agrobacterium solution was aspirated with a sterile pipette. The cotyledons were then co-cultured for 2 days at 23-24° C. under a 16-h photoperiod. The co-culture plates were placed in plastic bags to keep the humidity, which is preferable for MicroTom growth.
[…] Three to four weeks after the induction stage, the cotyledons formed buds or shoots. Cotyledons with buds or shoots were separated by individual event and transferred to, shoot elongation medium E2 (SI-2 medium without IAA), supplemented with 100 mg/L kanamycin for two to four weeks. All culture plates were placed in a culture box, placed inside a plastic bag, and cultured at 23-24° C. under a 16 h photoperiod.
Evaluation of plants after transformation with pMON15715 (FIG. 1) as described above was carried out in multiple ways. About five days after selection, tissue browning severity within and around the poked region on cotyledon explants was measured under a dissecting microscope. Low tissue browning severity was determined as less than 30% of the pokes made on each cotyledon explant that produced browning tissue and the high tissue browning severity was determined as more than 30% of the pokes made on each explant that generated browning tissue 5 days after culturing on selection medium. All the treatments of lipoic acid at concentrations of 5, 10, 50 and 100 μM had 1.5- to 1.8-fold increases of the percentage of explants scored as low tissue browning severity, respectively, compared to the treatment without lipoic acid (Table 1).

[2] = test system: cotton hypocotyl explants; assay: Cotton transformation: embryogenic callus formation, lipoic acid in UMSEL media; format: cell-based; conditions: average from 3 experiments
Protocol: Cotton seed was washed in 2 teaspoons of detergent in 700-800 mL of sterile water for 10 minutes. Seed was then soaked in fungicide solution (0.6 g benlate, 0.6 g captan per 100 mL sterile water) for 10 min, drained, but not rinsed. Seed was imbibed for 30 minutes in 800 mL of 50% Clorox with 3 drops of Tween-20 and then rinsed 3 times with sterile water. Seed was spread in a sterile phytatray containing 1/2 MS plus 1% glucose media at a density of approximately 20 seeds per tray. Seeds were germinated in the dark at 28° C. for 7-10 days.
Agrobacterium was prepared by streaking a solid LBssck plate from frozen stock and incubating at 28° C. for 2 days. Two mL of liquid LBssck was inoculated with a single colony from the plate and grown overnight at 28° C. Culture is diluted 1:10 with fresh LBssck and cultured overnight at 28° C. The cells were spun down, the supernatant was poured off, cells were washed with MSO media and then resuspended in 20 mL of MSO.
Explants were harvested by cutting off the cotyledons and then making a cut approximately 4 to 6 cm below the cotyledon. Hypocotyl sections were placed in MSO media and then cut into 0.5 to 1 cm pieces.
Twenty mL of Agrobacterium broth was added to 100 to 500 cut explant sections and allowed to soak for 20 minutes. Explants were moved to co-culture medium (TrCO; see media descriptions below), covered with a plastic bag and co-cultured at room temperature for 2 days. After co-culture, explants were moved to UMSEL (1) media (with kanamycin or glyphosate selection), parafilmed and cultured in the light ( 16/8 photoperiod) at 28° C. for 4 weeks. Tissue was then transferred to fresh UMSEL (2) media containing selection in the same culture conditions for an additional 4 weeks.
Independent calli that had formed were then moved to UMO(1) containing selection, parafilmed and cultured in the dark at 28° C. for 8 weeks. After 8 weeks, tissue was transferred to fresh UMO(2) containing selection, parafilmed, and cultured in the dark for an additional 8 weeks. Good embryogenic callus was moved to TRP embryo maturation media, parafilmed and cultured in the dark at 28° C. Embryogenic callus was subcultured to fresh TRP media every 4 weeks until somatic embryos formed and were moved to SHSU embryo germination media. Once on parafilmed SHSU plates, the shoots were placed in the light at 28° C. and subcultured every four weeks until roots began to form. When healthy roots and leaves were present, the shoots were moved to SHSU media in sundae cups and eventually to soil.

[3] = 5 μM lipoic acid for 8 weeks in UMSEL media
[4] = 10 μM lipoic acid for 8 weeks in UMSEL media
[5] = 50 μM lipoic acid for 8 weeks in UMSEL media
[6] = 100 μM lipoic acid for 8 weeks in UMSEL media

SMILES: O=C(O)CCCCC1CCSS1 (stereo not shown) [lipoic acid, 1,2-dithiolane-3-pentanoic acid]
- % high browning ([1]; 5 μM lipoic acid): 34.9%
- % low browning ([1]; 5 μM lipoic acid): 65.1%
- % high browning ([1]; 10 μM lipoic acid): 33.9%
- % low browning ([1]; 10 μM lipoic acid): 66.1%
- % high browning ([1]; 50 μM lipoic acid): 34.4%
- % low browning ([1]; 50 μM lipoic acid): 65.6%
- % high browning ([1]; 100 μM lipoic acid): 46%
- % low browning ([1]; 100 μM lipoic acid): 54%
- Frequency (%) of embryogenic callus formation [2, 3]: 49.4%
- Putative embryogenic calli [2, 3]: 132
- Frequency (%) of embryogenic callus formation [2, 4]: 31.4%
- Putative embryogenic calli [2, 4]: 88
- Frequency (%) of embryogenic callus formation [2, 5]: 61.2%
- Putative embryogenic calli [2, 5]: 120
- Frequency (%) of embryogenic callus formation [2, 6]: 56.6%
- Putative embryogenic calli [2, 6]: 107
